What was measured:
Type in all cases: cell-based
[1] = MTT assay, cell viability of RAW264.7 cells; conditions: mouse, half inhibitory of RAW264.7 cells
Protocol: (§1) HepG2 cells (1 × 10^4 cells/well) or RAW264.7 cells ([…]) were incubated in 96T wells for 24 h. Then, HepG2 cells were treated with compounds or Adriamycin for 48 h. In addition, RAW264.7 cells were treated with compounds for 24 h. Then, 0.5% MTT (Sigma, Saint Louis, MO, USA) was added to 20 μL/well for 3.5 h. The supernatant was discarded, and DMSO (150 μL/well) was added to dissolve the purple formazan. Cells were agitated for 15 min at room temperature, and the absorbance at 490 nm was recorded by SpetraMax M2 (Molecular Devices, San Jose, CA, USA).
(§2) RAW264.7 cells (8 × 10^4 cells/well) were incubated in 96T wells with DMEM for 24 h and then treated with compounds and LPS (1 μg/mL) for 24 h; this included the control group and LPS group. Then, the cell supernatant was collected for nitric oxide production assay. Next, 100 uL/well PBS was added to 96T wells, then 0.5% MTT (Sigma, Saint Louis, MO, USA) was added to 20 μL/well for 3.5 h. DMSO (150 μL/well) was added to dissolve the purple formazan. Cells were agitated for 15 min at room temperature, and the absorbance at 490 nm was recorded by SpetraMax M2 (Molecular Devices, San Jose, CA, USA). The NO inhibition rate (%) = (ODLPS group − ODcompound group)/(ODLPS group-ODcontrol group) × 100%. The IC50 value refers to the inhibitory of nitric oxide production of LPS-stimulated RAW264.7 cells. Then, 70 uL of each cell supernatant sample was added into a new 96T plate, and Griess A and Griess B were added separately. Then, the absorbance value at 540 nm was detected and then brought into the standard curve to assay the concentration of NO. The cell survival rate (%) = (ODcompound group − ODblank group)/(ODcontrol group − ODblank group) × 100%. The half concentration of the cell death (CC50) value refers to the concentration of compound 5 when 50% of RAW264.7 cells die. The iNOS inhibitor ([…], L-NMMA) was selected as the positive control. The levels of cytokines (IL-1β, IFN-γ, IL-10, TNF-α, and IL-6) in the cell supernatant were determined using an ELISA kit (Novus Biologicals, Shanghai, China, Lot: 834472, 770118, 772051, 486956, 602865). When the process was conducted according to the manufacturer’s instructions, the absorbance was read at 450 nm/570 nm in a SpectraMax 340PC microplate spectrophotometer (Molecular Devices, San Jose, CA, USA).

[2] = system: NO production of LPS-stimulated RAW264.7 cells; assay: Nitric oxide production in LPS-stimulated RAW264.7 cells (Griess)
Protocol: as §2

[3] = target: T1, ATP1A1 (Homo sapiens, UniProt P05023); assay: ATP1A1 level and location in HepG2 cells (western blot, fluorescence staining, lysosomal colocalization); set-up: we focused on the regulatory effect of 5 on ATP1A1 in HepG2 cells; endogenous in cells; host or cells: HepG2
Protocol: HepG2 cells (4 × 10^5 cells/well) were incubated in confocal dishes with DMEM for 24 h and then treated with compounds for 48 h. Then, the cells were treated with 0.1% Triton X-100 for 10 min and washed with PBS five times. Finally, the cells were dyed with anti-ATP1A1 at 4 °C overnight. Nuclear staining with DAPI (1 μg∙mL^−1) was added for 7 min in the dark, and the cells were washed. The stained images were captured under a laser scanning confocal microscope (Nikon A1 AIR MP+, Tokyo, Japan). HepG2 cells (5 × 10^5 cells/well) were incubated in 6-well plates in complete DMEM. Cells were treated with compounds for 24 h. Then, the cells were stained with Annexin V/PI for 30 min at 4 °C in the dark, and apoptosis analysis was carried out by laser scanning confocal microscopy.
Protein samples were prepared using a RIPA lysis buffer. The concentration of the protein was analyzed using a nucleic acid and protein microanalyzer (Molecular Devices, San Jose, CA, USA). SDS–PAGE was performed to separate the proteins, which were then electrotransferred onto a PVDF membrane. The membrane was incubated with antibodies at 4 °C overnight. Next, the membrane was washed and incubated with an HRP-conjugated secondary antibody (Beyotime, BeiJing, China). Finally, signals were detected by the ECL method (Beyotime, BeiJing, China) and analyzed using ImageJ software.

[4] = system: HepG2 cells; assay: MTT assay, cell viability of HepG2 cells; conditions: Homo sapiens, HepG2, 48 h
Protocol: as §1

[5] = system: Huh-7 cells; assay: Apoptosis of Huh-7 cells by flow cytometry (Annexin V/PI)
Excerpt: (§3) 2. The anti-proliferation of compound 5 on Huh-7 cells
(§4) We tested another hepatoma cell line (Huh-7) to validate effect of compound 5. L02 (normal hepatocytes), HepG2 and Hub-7 cells were used to discuss the effect of 5. […]
(§5) of 5 on Huh-7 cell was (24.49±[…]) μM (Table S1). The morphology and apoptosis of the cells by reversed microscope and flow cytometry, respectively.
(§6) Second, the expression and phosphorylation of ATP1A1 were detected by Western blot analysis in L02, HepG2 and Huh-7 cells. Compared with L02 group, the expression of ATP1A1 was higher in HepG2 and Huh-7 cells, but there was no significant difference in the phosphorylation of ATP1A1 (Figure […]
(§7) At last, the effect of 5 on the expression and the phosphorylation of ATP1A1 in Huh-7 cells was […]
(§8) the phosphorylation of ATP1A1. The result was consistent with that observed in HepG2 cells (Figure […]
(§9) Table S1 Cell viability of Huh-7 cell treated by compound 5
(§10) Figure S2 Compound 5 inhibited the proliferation and the level of ATP1A1 protein in Huh-7 cells L5, low concentration of 5 (12.5 μmol-1 ); H5, high concentration of 5 (25 μmol-1). […] (B) Image of cell apoptosis in Huh-7 cells was detected by flow cytometry. The cells were double stained with Annexin V and PI. […] Data are expressed as the mean ± standard deviation (n=3). *p<0.05, **p<0.01, ***p<0.001 vs. the control group. […]

[6] = target: T1, ATP1A1; assay: Western blot of ATP1A1 in Huh-7 cells; set-up: endogenous in cells
Excerpt: as §3, §4, §5, §6, §7, §8, §9, §10

## C[C@H](O)[C@]1(O)CC[C@@]2(O)[C@]1(C)[C@H](OC(=O)/C=C/c1ccccc1)C[C@@H]1[C@@]3(C)CC[C@H](O[C@H]4C[C@H](O)[C@H](O)[C@@H](C)O4)CC3=CC[C@]12O [Compound 5, Cynsaccatol L]
[1]
  CC50 at 24 h: 30.1 ± 3.14 µM
[2]; LPS-stimulated RAW264.7 cells
  inhibitory activity on NO production relative to the positive control drug (L-NMMA): 1000 times
[2]; Mus musculus, LPS (1 μg/mL)-stimulated RAW264.7 cells, 24 h, read-out: RAW264.7 IC50 (inhibition of nitric oxide production)
  IC50: 20 ± 20 nM
[3]; HepG2, 12.5 or 25 μmol∙L−1 for 48 h, 25 μmol∙L−1 for 12 h or 24 h
  endocytosis of ATP1A1 protein (lysosomal colocalization assay): induce the endocytosis of the ATP1A1 protein
[3]; HepG2, 5 25 μmol∙L−1, digitonin 10, MK 2206 40, FR 180204 200 nmol∙L−1, western blot
  expression of ATP1A1 (comparison with inhibitors): decreased
[3]; HepG2 cells, fluorescence staining
  green fluorescence intensity of ATP1A1 on the cell membrane: significantly reduced in a dose-dependent manner
[3]; HepG2 cells, western blot
  level of ATP1A1: significantly reduced
[4]
  IC50: 12.6 ± 2.13 µM
[5]
  apoptosis of Huh-7 cells: induce apoptosis of Huh-7 cells
[6]
  level of ATP1A1 in Huh-7: reduced

Source: article PMC10058894, “Bioactive C21 Steroidal Glycosides from Euphorbia kansui Promoted HepG2 Cell Apoptosis via the Degradation of ATP1A1 and Inhibited Macrophage Polarization under Co-Cultivation” (Molecules, 2023)
